Measured values published in US20090062536A1, “USE OF SULFONANILIDE COMPOUNDS AS HERBICIDE” (Bayer CropScience AG, priority 2007, published 2009).

Legend:
Sagittaria pygmaea = experiment: Herbicidal effect to weeds in a paddy field, pot test; format: in vivo, Sagittaria pygmaea Miq; conditions: 125 g ai/ha applied onto water surface; rated 3 weeks after treatment; 100% complete withering, 0% no effect
Excerpt: (§1) Test of herbicidal effect to weeds and damage on paddy rice in a paddy field: In a greenhouse, each three paddy rice seedlings (Oryza sativa L. cultivar: Nihonbare) were transplanted in each pot filled with paddy field soil. Each twenty forced sprouts of paddy rice (Oryza sativa L. cultivar: Nihonbare) were also inoculated in each pot. Then, any of seeds or tubers of Cyperus difformis L., Echinochloa crus-galli, Scirpus juncoides, SU-resistant Scirpus juncoides, annual broad leaf weeds (including Lindernia procumbens Philcox, Rotala indica Koehne, and Elatine triandra Schk), SU-resistant annual broad leaf weeds, Sagittaria pygmaea Miq, Cyperus serotinus Rottboel was inoculated in the pot and covered with water in about 2 to 3 cm depth. Five days after transplanting paddy rice, prescribed diluted solutions of formulations of the respective active compounds were applied onto the water surface. Each of the formulations was prepared as an emulsion by mixing 1 part by weight of active compound with 5 parts by weight of carrier and 1 part by weight of emulsifier (benzyloxy polyglycol ether). After the treatment, water depth of 3 cm was kept. A herbicidal effect and a herbicidal damage on paddy rice were investigated 3 weeks after the treatment. The herbicidal effect and the herbicidal damage on paddy rice were rated as 100% in the case of complete withering and 0% in the case of no herbicidal effect or no herbicidal damage.

transplanted rice = experiment: Herbicidal damage on transplanted paddy rice, paddy field pot test; format: in vivo, Oryza sativa L. cultivar: Nihonbare; conditions: 125 g ai/ha applied onto water surface 5 days after transplanting; rated 3 weeks after treatment; 100% complete withering, 0% no damage
Excerpt: as §1

Cyperus serotinus = experiment: Herbicidal effect to weeds in a paddy field, pot test; format: in vivo, Cyperus serotinus Rottboel; conditions: 125 g ai/ha applied onto water surface; rated 3 weeks after treatment; 100% complete withering, 0% no effect
Excerpt: as §1

[1] = tested on: SU-resistant Scirpus juncoides; experiment: as above; format: in vivo; conditions: 125 g ai/ha applied onto water surface; rated 3 weeks after treatment; 100% complete withering, 0% no effect
Excerpt: as §1

Echinochloa crus-galli = experiment: as above; format: in vivo; conditions: 125 g ai/ha applied onto water surface; rated 3 weeks after treatment; 100% complete withering, 0% no effect
Excerpt: as §1

annual broad leaf weeds = experiment: as above; format: in vivo; conditions: 125 g ai/ha applied onto water surface; rated 3 weeks after treatment; 100% complete withering, 0% no effect
Excerpt: as §1

Scirpus juncoides = experiment: as above; format: in vivo; conditions: 125 g ai/ha applied onto water surface; rated 3 weeks after treatment; 100% complete withering, 0% no effect
Excerpt: as §1

[2] = tested on: SU-resistant annual broad leaf weeds; experiment: as above; format: in vivo; conditions: 125 g ai/ha applied onto water surface; rated 3 weeks after treatment; 100% complete withering, 0% no effect
Excerpt: as §1

directley seeded rice = experiment: Herbicidal damage on directly seeded paddy rice, paddy field pot test; format: in vivo, Oryza sativa L. cultivar: Nihonbare; conditions: 125 g ai/ha applied onto water surface; rated 3 weeks after treatment; 100% complete withering, 0% no damage
Excerpt: as §1

SMILES	herbicidal effect Sagittaria pygmaea (Sagittaria pygmaea) [%]	herbicidal damage on transplanted rice (transplanted rice) [%]	herbicidal effect Cyperus serotinus (Cyperus serotinus) [%]	herbicidal effect SU-resistant Scirpus juncoides [1] [%]	herbicidal effect Echinochloa crus-galli (Echinochloa crus-galli) [%]	herbicidal effect annual broad leaf weeds (annual broad leaf weeds) [%]	herbicidal effect Scirpus juncoides (Scirpus juncoides) [%]	herbicidal effect SU-resistant annual broad leaf weeds [2] [%]	herbicidal damage on directley seeded rice (directley seeded rice) [%]
COc1cc(OC)nc(C(SC)c2cccc(I)c2NS(=O)(=O)CC(F)(F)F)n1 (centres unmarked) [Compound 8, 2-iodo-6-[(4,6-dimethoxypyrimidin-2-yl)(methylthio)methyl]-N-2,2,2-trifluoroethanesulfonanilide]	100	0	100	90	100	100	100	100	10
COc1cc(OC)nc(C(O)c2cccc(Br)c2NS(=O)(=O)CC(F)(F)F)n1 (centres unmarked) [Compound 1, 2-bromo-6-[(4,6-dimethoxypyrimidin-2-yl)(hydroxy)methyl]-N-2,2,2-trifluoroethanesulfonanilide]	100	0	100	100	100	100	100	100	10
COc1cc(OC)nc(C(SC)c2cccc(Br)c2NS(=O)(=O)CC(F)(F)F)n1 (centres unmarked) [Compound 4, 2-bromo-6-[(4,6-dimethoxypyrimidin-2-yl)methylthiomethyl]-N-2,2,2-trifluoroethanesulfonanilide]	100	0	100	90	100	100	100	100	10
COc1cc(OC)nc(C(=O)c2cccc(Br)c2NS(=O)(=O)CC(F)(F)F)n1 [Compound 2, 2-bromo-6-[(4,6-dimethoxypyrimidin-2-yl)carbonyl]-N-2,2,2-trifluoroethanesulfonanilide]	100	10	100	100	100	100	100	100	20
COc1nc(OC)nc(C(=O)c2cccc(Br)c2N(C)S(=O)(=O)C(F)F)n1 [Compound 10, N-{2-bromo-6-[(4,6-dimethoxy-1,3,5-triazin-2-yl)carbonyl]phenyl}-N-methyl-1,1-difluoromethanesulfonamide]	100	10	100	90	100	90	100	100	30
COc1cc(Cl)nc(C(=O)c2cccc(Cl)c2N(C)S(=O)(=O)C(F)F)n1 [Compound 51, N-{2-chloro-6-[(4-chloro-6-methoxypyrimidin-2-yl)carbonyl]phenyl}-N-methyl-1,1-difluoromethanesulfonamide]	100	10	100	90	100	90	100	–	30
COc1cc(OC)nc(C(O)c2cccc(I)c2NS(=O)(=O)CC(F)(F)F)n1 (centres unmarked) [Compound 5, 2-iodo-6-[(4,6-dimethoxypyrimidin-2-yl)(hydroxy)methyl]-N-2,2,2-trifluoroethanesulfonanilide]	100	20	100	90	100	100	100	100	30
